Source: patent US12551463B2, “Dosing of a Bruton's tyrosine kinase inhibitor” (Loxo Oncology, Inc., priority 2019, dated 2026)
“Also recorded” adds a separate entry of the source.

Experiments:
CLL/SLL and B-cell NHL = experiment: Phase 1/2 clinical study of oral BTK-I monotherapy, all patients; format: in vivo, human
Description: (§1) The study is an open-label, multi-center study of oral BTK-I to evaluate safety and efficacy as monotherapy and as part of combination therapy in patients with CLL/SLL and NHL who have failed or are intolerant to standard of care. This study includes monotherapy as well as combination treatment parts. The monotherapy part includes Phase 1 dose escalation and dose expansion as well as Phase 2. The combination therapy part is a Phase 1b (safety assessment and expansion) of BTK-I in combination with venetoclax, with or without anti-CD20 therapy. Phase 1 dose escalation will proceed prior to start of Phase 1b or Phase 2. Once a recommended Phase 2 dose (RP2D) is identified in Phase 1, enrollment can commence to the Phase 1b combination therapies and Phase 2 monotherapy cohorts.
(§2) The primary objectives of the Phase 1 Dose Escalation and Expansion part of the study is to determine the maximum tolerated dose (MTD)/RP2D of oral BTK-I in patients with previously treated CLL/SLL and B-cell NHL.
(§3) Patients are enrolled with histologically confirmed CLL/SLL or B-cell NHL who have failed or are intolerant to at least two prior standard of care regimens given in combination or sequentially or have received at least one prior BTK inhibitor-containing regimen when BTK inhibitor is approved in first line.
(§4) BTK-I is administered in oral tablet form. Dose escalation will follow a 3+3 design starting with a 25 mg QD dose (followed by 50 mg QD (dose level cohort 2), 100 mg QD (dose level cohort 3), 150 mg QD (dose level cohort 4), 200 mg QD (dose level cohort 5), 250 mg QD (dose level cohort 6), and 300 mg QD (dose level cohort 7)). Cycle length will be 28 days. The drug limiting toxicity (DLT) period will be 28 days, commencing with the first dose of BTK-I.
The primary objective of the Phase 2 is to assess the primary anti-tumor activity of BTK-I based on overall response rate (ORR) and as assessed by the Independent Review Committee. […]
Dosing during Phase 2 will be at the RP2D of 200 mg QD. […] The dose (and schedule) chosen for Phase 2 may be changed by the SRC based on emerging data (e.g., PK, safety, and/or efficacy) as long as the new dose is not greater than the highest dose that has a DLT <33% and is determined to be safe by the SRC in Phase 1. […]

[1] = test system: Waldenstrom's macroglobulinemia; experiment: Phase 1/2 clinical study, Waldenstrom's macroglobulinemia patients; format: in vivo, human
Description: as §1, §2, §3, §4
The primary objective of the Phase 2 is to assess the primary anti-tumor activity of BTK-I based on overall response rate (ORR) and as assessed by the Independent Review Committee.
At the RP2D up to ˜600 patients with CLL/SLL or NHL will be enrolled to one of the following cohorts: • Cohort 1: Non-blastoid MCL patients treated with a prior BTK-inhibitor. • Cohort 2: CLL/SLL patients treated with 2 or more prior regimens, including a BTK inhibitor-containing regimen. • Cohort 3: CLL/SLL patients with no prior therapy. • Cohort 4: CLL/SLL patients treated with prior therapy, BTK inhibitor naive. • Cohort 5: WM patients treated with a prior BTK inhibitor containing regimen. • Cohort 6: MZL patients treated with a prior BTK inhibitor containing regimen. • Cohort 7: (Not otherwise specified) defined as CLL/SLL or NHL not otherwise specified in Cohorts 1 through 6, inclusive of CLL/SLL or NHL, Richter's transformation, blastoid MCL, and patients with history of CNS involvement or primary CNS lymphoma.
Dosing during Phase 2 will be at the RP2D of 200 mg QD. The cycle length will be 28 days. BTK-I will be administered to the Phase 2 patients in oral tablet form at the RP2D. The dose (and schedule) chosen for Phase 2 may be changed by the SRC based on emerging data (e.g., PK, safety, and/or efficacy) as long as the new dose is not greater than the highest dose that has a DLT <33% and is determined to be safe by the SRC in Phase 1. If the RP2D is changed based on emerging data, patients enrolled to Phase 2 at a different dose may have the dose changed to the new dose.

[2] = of 13 with prior covalent BTK inhibitor

COc1ccc(F)cc1C(=O)NCc1ccc(-c2nn([C@@H](C)C(F)(F)F)c(N)c2C(N)=O)cc1 [BTK-I, (S)-5-amino-3-(4-((5-fluoro-2-methoxybenzamido)methyl)phenyl)-1-(1,1,1-trifluoropropane-2-yl)-1H-pyrazole-4-carboxamide]
responses at first dose level (CLL/SLL and B-cell NHL; 25 mg QD): Responses were observed | clinical activity/efficacy across dose levels (CLL/SLL and B-cell NHL; 7 dose levels, 25 mg to 300 mg QD): demonstrated activity across all dose levels; also recorded: Efficacy was observed at all dose levels | treated patients remaining on BTK-I (CLL/SLL and B-cell NHL; 237 of 323 at data cut): 73% | responses in remaining efficacy-evaluable patients (CLL/SLL and B-cell NHL; remaining 39 patients (other B-cell malignancies)): 8 | ORR ([1]; 13 patients with prior covalent BTK inhibitor): 69% | ORR ([1]; 19 efficacy-evaluable WM patients): 68% | WM responders ongoing ([1]; median follow-up 4.6 months): Ten of 13 | MR, patients [1, 2]: 4 | PR, patients [1, 2]: 5 | PR, patients ([1]; of 19 efficacy-evaluable): 9 | minor response (MR), patients ([1]; of 19 efficacy-evaluable): 4
